{"source": "patent US12195559B2", "about": "“CDCA1-derived peptide and vaccine containing same” (ONCOTHERAPY SCIENCE, INC., priority 2018, dated 2025)", "key": {"peptide-pulsed C1R-A01 [1]": {"system": "peptide-pulsed C1R-A01", "test": "In vitro CTL induction, IFN-gamma ELISPOT assay", "type": "cell-based, human", "conditions": "CD8-positive T cells from HLA-A*01:01-positive donors stimulated with DCs pulsed with 20 micro-g/ml peptide, target C1R-A01 pulsed vs not pulsed", "experimental": "C1R cells (C1R-A01) that constitutively express HLA-A*01:01 was used as cells for stimulating CTLs. A cDNA encoding the HLA-A*01:01 gene was amplified by PCR and introduced into an expression vector. C1R cells incorporated with HLA-A*01:01 gene expression vector were cultured for two weeks under drug selection with a medium containing G418 (Invitrogen). After diluting G418-resistant C1R cell suspension, the cells were seeded into a 96-well plate, and subjected to selective culture for another 30 days with a medium containing G418. The HLA-A*01:01 expression in C1R cells was verified by flow cytometric analysis.\nMonocyte-derived dendritic cells (DCs) were used as the antigen-presenting cell to induce a cytotoxic T lymphocyte (CTL) specific to peptides presented on human leukocyte antigens (HLAs). DCs were prepared in vitro as already reported in the literature (Nakahara S et al., Cancer Res 2003, 63(14): 4112-8). Specifically, peripheral-blood mononuclear cells (PBMCs) collected from healthy volunteers (HLA-A*01:01-positive) with the Ficoll-Paque plus solution (Pharmacia) were seeded into plastic tissue culture dishes (Corning) to allow attachment of monocytes in PBMCs to the dishes. Then, the cells were cultured in the presence of 1000 IU/ml granulocyte macrophage colony-stimulating factor (R&D System) and 1000 IU/ml interleukin (IL)-4 (R&D System) for seven days. As medium, an AIM-V medium (Invitrogen) containing inactivated AB type serum (MP Biomedicals) was used (2% ABS/AIM-V medium). […] Peptide pulsing was performed in the AIM-V medium. These peptide-pulsed DCs were inactivated by X-ray irradiation (20 Gy), and mixed in a 1:20 ratio with autologous CD8-positive T cells obtained by using the CD8 Positive Isolation Kit (Invitrogen) (1.5×10^4 DCs and 3×10^5 CD8-positive T cells), and cultured in a 48-well plate (Corning). The volume of 2% ABS/AIM-V medium was 0.5 ml per 1 well, and IL-7 (R&D System) was added (final concentration: 10 ng/ml) to the well. Two days after the start of culture, IL-2 (Novartis) was added thereto (final concentration: 20 IU/ml). On 7th day of culture and 14th day of culture, CD8-positive T cells were further stimulated with peptide-pulsed DCs. The DCs were prepared before use by the same method as above. On 21st day or thereafter (after the third DC stimulation), IFN-gamma production of CD8-positive T cells against peptide-pulsed C1R-A01 was confirmed by enzyme-linked immunospot (ELISPOT) assay (Tanaka H et al., Br J Cancer 2001, 84(1): 94-9; Umano Y et al., Br J Cancer 2001, 84(8): 1052-7; Uchida N et al., Clin Cancer Res 2004, 10(24): 8577-86; Suda T et al., Cancer Sci 2006, 97(5): 411-9; Watanabe T et al., Cancer Sci 2005, 96(8): 498-506).\n(§1) C1R-A01 pulsed with a peptide was prepared as target cells. The IFN-gamma ELISPOT assay and IFN-gamma ELISA were performed according to the procedures recommended by the assay kit manufacturer."}, "peptide-pulsed C1R-A01 [2]": {"system": "peptide-pulsed C1R-A01", "test": "IFN-gamma ELISA of CTL clones established by limiting dilution", "type": "cell-based, human", "conditions": "CTL clones against peptide-pulsed vs non-pulsed target cells", "experimental": "CTLs were propagated using a method similar to that reported by Riddell et al. (Walter E A et al., N Engl J Med 1995, 333(16): 1038-44; Riddell S R et al., Nat Med 1996, 2(2): 216-23). In a flask for tissue culture (FALCON), the CTLs were cultured in 5% ABS/AIM-V medium (culture solution volume: 25 ml/flask) with two types of human B lymphoblastoid cell lines (5×10^6 cells each) treated with mitomycin C and anti-CD3 antibody (BD biosciences, final concentration: 40 ng/ml). On the next day after the culturing was started, IL-2 was added to the culture (IL-2 final concentration: 120 IU/ml). On days 5, 8, and 11, the medium was changed to 5% ABS/AIM-V medium containing 60 IU/ml IL-2 (IL-2 final concentration: 30 IU/ml) (Tanaka H et al., Br J Cancer 2001, 84(1): 94-9; Umano Y et al., Br J Cancer 2001, 84(8): 1052-7; Uchida N et al., Clin Cancer Res 2004, 10(24): 8577-86; Suda T et al., Cancer Sci 2006, 97(5): 411-9; Watanabe T et al., Cancer Sci 2005, 96(8): 498-506).\nAfter CTLs were induced in vitro, the CTLs were seeded at 1 cell/well or 10 cells/well in a 96-well round-bottomed microplate (Corning). The CTLs were cultured in 5% ABS/AIM-V medium (culture solution volume: […]) with two types of human B lymphoblastoid cell lines (1×10^4 cells each) treated with mitomycin C, anti-CD3 antibody (final concentration: 30 ng/ml), and IL-2 (final concentration: 125 IU/ml). After 10 days, […] of 5% ABS/AIM-V medium containing 500 IU/ml IL-2 was added to the culture.\nas §1"}, "[3]": {"system": "COS7 cells expressing CDCA1 and HLA-A*01:01", "test": "IFN-gamma production of CTL clone against target cells expressing CDCA1 and HLA-A*01:01", "type": "cell-based, African green monkey", "experimental": "as §1\nThe cDNA encoding the CDCA1 or HLA-A*01:01 gene were amplified by PCR. Each PCR amplified product was incorporated into an expression vector. Using Lipofectamine 2000 (Invitrogen), either or both of the CDCA1 gene expression vector and the HLA-A*01:01 gene expression vector were introduced into COS7 cells, an HLA-negative cell line, according to the procedure recommended by the manufacturer. On the next day of the gene introduction, the COS7 cells were separated using Versene (Invitrogen) and used as target cells."}}, "note": "“Also recorded” adds a separate entry of the source.", "data": [{"sequence": "YMEFLWQY (a peptide derived from CDCA1) [SEQ ID NO: 1, CDCA1-derived 8mer peptide, start position 138]", "values": [{"measurement": "Peptide-specific IFN-gamma production (CTL induction)", "setting": "peptide-pulsed C1R-A01 [1]; listed as CDCA1-A01-8-138", "result": "Peptide-specific IFN-gamma production relative to the control well was observed; also recorded: able to induce CTLs that showed peptide-specific IFN-gamma production"}]}, {"sequence": "DSPEKLKNY (a peptide derived from CDCA1) [SEQ ID NO: 34, CDCA1-derived 9mer peptide, start position 246]", "values": [{"measurement": "Peptide-specific IFN-gamma production (CTL induction)", "setting": "peptide-pulsed C1R-A01 [1]; listed as CDCA1-A01-9-246", "result": "Peptide-specific IFN-gamma production relative to the control well was observed; also recorded: able to induce CTLs that showed peptide-specific IFN-gamma production"}]}, {"sequence": "SCQLEVQLY (a peptide derived from CDCA1) [SEQ ID NO: 37, CDCA1-derived 9mer peptide, start position 288]", "values": [{"measurement": "Peptide-specific IFN-gamma production (CTL induction)", "setting": "peptide-pulsed C1R-A01 [1]; listed as CDCA1-A01-9-288", "result": "Peptide-specific IFN-gamma production relative to the control well was observed; also recorded: able to induce CTLs that showed peptide-specific IFN-gamma production"}]}, {"sequence": "ARQEVVEKY (a peptide derived from CDCA1) [SEQ ID NO: 35, CDCA1-derived 9mer peptide, start position 268]", "values": [{"measurement": "Peptide-specific IFN-gamma production (CTL induction)", "setting": "peptide-pulsed C1R-A01 [1]; listed as CDCA1-A01-9-268", "result": "Peptide-specific IFN-gamma production relative to the control well was observed; also recorded: able to induce CTLs that showed peptide-specific IFN-gamma production"}]}, {"sequence": "IYMRALQIVY (a peptide derived from CDCA1) [SEQ ID NO: 13, CDCA1-derived 10mer peptide, start position 48]", "values": [{"measurement": "Peptide-specific IFN-gamma production of CTL clones", "setting": "peptide-pulsed C1R-A01 [2]; listed as CDCA1-A01-10-48", "result": "showed peptide-specific IFN-gamma production"}, {"measurement": "Peptide-specific IFN-gamma production (CTL induction)", "setting": "peptide-pulsed C1R-A01 [1]; listed as CDCA1-A01-10-48", "result": "Peptide-specific IFN-gamma production relative to the control well was observed; also recorded: able to induce CTLs that showed peptide-specific IFN-gamma production"}]}, {"sequence": "QLVQLYQK (QLEVQLYQK; a peptide derived from CDCA1) [SEQ ID NO: 25, CDCA1-derived 9mer peptide, start position 290]", "values": [{"measurement": "Peptide-specific IFN-gamma production (CTL induction)", "setting": "peptide-pulsed C1R-A01 [1]; listed as CDCA1-A01-9-290", "result": "Peptide-specific IFN-gamma production relative to the control well was observed; also recorded: able to induce CTLs that showed peptide-specific IFN-gamma production"}]}, {"sequence": "ETYMEFLWQY (a peptide derived from CDCA1) [SEQ ID NO: 8, CDCA1-derived 10mer peptide, start position 136]", "values": [{"measurement": "Peptide-specific IFN-gamma production of CTL clones", "setting": "peptide-pulsed C1R-A01 [2]; listed as CDCA1-A01-10-136", "result": "showed peptide-specific IFN-gamma production"}, {"measurement": "IFN-gamma production of CTL clone against target cells", "setting": "[3]; COS7 cells expressing both CDCA1 and HLA-A*01:01", "result": "showed IFN-gamma production"}, {"measurement": "IFN-gamma production of CTL clone against negative control cells", "setting": "[3]; COS7 cells expressing either CDCA1 or HLA-A*01:01, listed as CDCA1-A01-10-136", "result": "no significant IFN-gamma production was observed; also recorded: did not show significant IFN-gamma production"}, {"measurement": "Peptide-specific IFN-gamma production (CTL induction)", "setting": "peptide-pulsed C1R-A01 [1]; listed as CDCA1-A01-10-136", "result": "Peptide-specific IFN-gamma production relative to the control well was observed; also recorded: able to induce CTLs that showed peptide-specific IFN-gamma production"}]}, {"sequence": "FREACRETY (a peptide derived from CDCA1) [SEQ ID NO: 33, CDCA1-derived 9mer peptide, start position 130]", "values": [{"measurement": "Peptide-specific IFN-gamma production (CTL induction)", "setting": "peptide-pulsed C1R-A01 [1]; listed as CDCA1-A01-9-130", "result": "Peptide-specific IFN-gamma production relative to the control well was observed; also recorded: able to induce CTLs that showed peptide-specific IFN-gamma production"}]}, {"sequence": "MMPVNSEVMY (a peptide derived from CDCA1) [SEQ ID NO: 9, CDCA1-derived 10mer peptide, start position 66]", "values": [{"measurement": "Peptide-specific IFN-gamma production (CTL induction)", "setting": "peptide-pulsed C1R-A01 [1]; listed as CDCA1-A01-10-66", "result": "No IFN-gamma production; also recorded: peptide-specific IFN-gamma production was not observed"}]}, {"sequence": "VYGIRLEHFY (a peptide derived from CDCA1) [SEQ ID NO: 10, CDCA1-derived 10mer peptide, start position 56]", "values": [{"measurement": "Peptide-specific IFN-gamma production of CTL clones", "setting": "peptide-pulsed C1R-A01 [2]; listed as CDCA1-A01-10-56", "result": "showed peptide-specific IFN-gamma production"}, {"measurement": "Peptide-specific IFN-gamma production (CTL induction)", "setting": "peptide-pulsed C1R-A01 [1]; listed as CDCA1-A01-10-56", "result": "Peptide-specific IFN-gamma production relative to the control well was observed; also recorded: able to induce CTLs that showed peptide-specific IFN-gamma production"}]}]}
